Source: patent publication US20050004138A1 (Pfizer Inc, priority 2003, published 2005)

Experiments:
Social Phobia = experiment: Treatment of subjects diagnosed with Social Phobia; format: in vivo, human; conditions: subjects aged 18 to 55 years with Social Phobia; about 40 to about 200 mg/day
Specific Phobia = experiment: Treatment of subjects diagnosed with Specific Phobia; format: in vivo, human; conditions: subjects aged 18 to 55 years with Specific Phobia; about 40 to about 200 mg/day

SMILES: O=C1Cc2cc(CCN3CCN(c4nsc5ccccc45)CC3)c(Cl)cc2N1 [Ziprasidone, 5-(2-(4-(1,2-benzisothiazol-3-yl)piperazinyl)ethyl)chlorooxindole]
- tolerability / side effects (Social Phobia): well tolerated
- tolerability / side effects (Specific Phobia): well tolerated
